Source: the NIST ThermoML archive (doi:10.1016/j.fluid.2007.07.013)
Numbers after ± are expanded uncertainties.

Conditions: Liquid

For `CCSC` [2-thiabutane], the “vapor or sublimation pressure” value (247.76 K) was 1 kPa, the “vapor or sublimation pressure” value (272.96 K) was 6 kPa and the “vapor or sublimation pressure” value (293.23 K) was 17 ± 12 kPa. The “vapor or sublimation pressure” value (293.41 K) was 17 ± 12 kPa, the “vapor or sublimation pressure” value (313.33 K) was 40 ± 12 kPa and the “vapor or sublimation pressure” value (313.35 K) was 40 ± 12 kPa.

For `CSC` [2-thiapropane], the “vapor or sublimation pressure” value (252.89 K) was 8 ± 12 kPa, the “vapor or sublimation pressure” value (253.06 K) was 8 ± 12 kPa and the “vapor or sublimation pressure” value (272.76 K) was 22 ± 12 kPa. For the same molecule, the “vapor or sublimation pressure” value (278.46 K) was 29 ± 12 kPa, the “vapor or sublimation pressure” value (293.16 K) was 53 ± 12 kPa and the “vapor or sublimation pressure” value (293.43 K) was 54 ± 12 kPa. For the same molecule, the “vapor or sublimation pressure” value (313.3 K) was 112 ± 12 kPa and the “vapor or sublimation pressure” value (313.43 K) was 112 ± 12 kPa.

In the case of `S=C=S` [carbon disulfide], the “vapor or sublimation pressure” value (273.08 K) is reported as 17 ± 12 kPa, the “vapor or sublimation pressure” value (298.4 K) is reported as 49 ± 12 kPa and the “vapor or sublimation pressure” value (323.5 K) is reported as 116 ± 12 kPa. For the same molecule, the “vapor or sublimation pressure” value (348.45 K) was 240 ± 12 kPa.

In the case of `CCS` [ethanethiol], the “vapor or sublimation pressure” value (272.94 K) is reported as 25 ± 12 kPa, the “vapor or sublimation pressure” value (293.36 K) is reported as 59 ± 12 kPa and the “vapor or sublimation pressure” value (313.41 K) is reported as 121 ± 12 kPa.

In the case of `S` [hydrogen sulfide], the “vapor or sublimation pressure” value (273.08 K) is reported as 1033 ± 17 kPa, the “vapor or sublimation pressure” value (298.4 K) is reported as 2024 ± 26 kPa and the “vapor or sublimation pressure” value (323.5 K) is reported as 3564 ± 44 kPa. The “vapor or sublimation pressure” value (348.45 K) was 5812 ± 72 kPa.

In the case of `CS` [methanethiol], the “vapor or sublimation pressure” value (243.19 K) is reported as 20 ± 12 kPa, the “vapor or sublimation pressure” value (258 K) is reported as 42 ± 12 kPa and the “vapor or sublimation pressure” value (272.98 K) is reported as 80 ± 12 kPa. The “vapor or sublimation pressure” value (293.35 K) was 170 ± 12 kPa and the “vapor or sublimation pressure” value (298.23 K) was 200 ± 12 kPa.
